Results on 24 molecules are retold here after patent publication US8263606B2 (Xenon Pharmaceuticals Inc., priority 2008, dated 2012).

Some results are limits rather than exact numbers.

The target in one series is CYP3A4 (Homo sapiens, UniProt P08684). As to the kind of experiment: Cytochrome P450 (CYP450) Inhibition Assay, CYP3A4 (Vivid fluorescence, BOMCC substrate). Particulars: human, P450 Baculosomes (recombinant CYP3A4), probe BOMCC (Vivid substrate).
For the next series, the system named is sodium channel. In words: Guanidine influx assay (14C-guanidine radiotracer flux, in vitro). Format: cell-based, human or rat. Particulars: guanidine influx assay using a known cell line that expresses a sodium channel; activity level class. An excerpt: This example describes an in vitro assay for testing and profiling test agents against human or rat sodium channels stably expressed in cells of either an endogenous or recombinant origin. The assay is also useful for determining the IC50 of a sodium channel blocking compound. The assay is based on the guanidine flux assay described by Reddy, N. L., et al., J. Med. Chem. (1998), 41(17):3298-302.
The guanidine influx assay is a radiotracer flux assay used to determine ion flux activity of sodium channels in a high-throughput microplate-based format. The assay uses ^14C-guanidine hydrochloride in combination with various known sodium channel modulators, to assay the potency of test agents. Potency is determined by an IC50 calculation. Selectivity is determined by comparing potency of the compound for the channel of interest to its potency against other sodium channels (also called ‘selectivity profiling’).
Each of the test agents is assayed against cells that express the channels of interest. Voltage gated sodium channels are either TTX sensitive or insensitive. This property is useful when evaluating the activities of a channel of interest when it resides in a mixed population with other sodium channels. The following Table 1 summarizes cell lines useful in screening for a certain channel activity in the presence or absence of TTX.
It is also possible to employ recombinant cells expressing these sodium channels. Cloning and propagation of recombinant cells are known to those skilled in the art (see, for example, Klugbauer, N, et al., EMBO J. (1995), 14(6):1084-90; and Lossin, C., et al., Neuron (2002), 34, pp. 877-884).
Cells expressing the channel of interest are grown according to the supplier or in the case of a recombinant cell in the presence of selective growth media such as G418 (Gibco/Invitrogen). The cells are disassociated from the culture dishes with an enzymatic solution (Ix) Trypsin/EDTA (Gibco/Invitrogen) and analyzed for density and viability using haemocytometer (Neubauer). Disassociated cells are washed and resuspended in their culture media then plated into Scintiplates (Beckman Coulter Inc.) (approximately 100,000 cells/well) and incubated at 37° C./5% CO2 for 20-24 hours. After an extensive wash with Low sodium HEPES-buffered saline solution (LNHBSS) (150 mM Choline Chloride, […] (Sigma), 1 mM Calcium Chloride, 5 mM Potassium Chloride, 1 mM Magnesium Chloride, 10 mM Glucose) agents diluted with LNHBSS are added to each well. (Varying concentrations of test agent may be used). The activation/radiolabel mixture contains aconitine (Sigma) to increase the percentage of time that the sodium channels are open, and ^14C-guanidine hydrochloride (ARC) to measure flux through the voltage-gated sodium channels.
After loading the cells with test agent and activation/radiolabel mixture, the Scintiplates are incubated at ambient temperature. Following the incubation, the Scintplates are extensively washed with LNHBSS supplemented with guanidine (Sigma). The Scintiplates are dried and then counted using a Wallac MicroBeta TriLux (Perkin-Elmer Life Sciences). The ability of the test agent to block sodium channel activity is determined by comparing the amount of ^14C-guanidine present inside the cells expressing the different sodium channels.
The IC50 value of a test agent for a specific sodium channel may be determined using the above general method. […] Typically the mid-point concentration of test agent is set at 1 μM, and sequential concentrations of half dilutions greater or smaller are applied (e.g. 0.5 μM; 5 μM and 0.25 μM; 10 μM and 0.125 μM; 20 μM etc.). The IC50 curve is calculated using the 4 Parameter Logistic Model or Sigmoidal Dose-Response Model formula (fit=(A+((B−A)/(1+((C/x)^D)))).
The fold selectivity, factor of selectivity or multiple of selectivity, is calculated by dividing the IC50 value of the test sodium channel by the reference sodium channel, for example, Nav1.5. […]

Chain of CYP3A4 (P08684 whole entry): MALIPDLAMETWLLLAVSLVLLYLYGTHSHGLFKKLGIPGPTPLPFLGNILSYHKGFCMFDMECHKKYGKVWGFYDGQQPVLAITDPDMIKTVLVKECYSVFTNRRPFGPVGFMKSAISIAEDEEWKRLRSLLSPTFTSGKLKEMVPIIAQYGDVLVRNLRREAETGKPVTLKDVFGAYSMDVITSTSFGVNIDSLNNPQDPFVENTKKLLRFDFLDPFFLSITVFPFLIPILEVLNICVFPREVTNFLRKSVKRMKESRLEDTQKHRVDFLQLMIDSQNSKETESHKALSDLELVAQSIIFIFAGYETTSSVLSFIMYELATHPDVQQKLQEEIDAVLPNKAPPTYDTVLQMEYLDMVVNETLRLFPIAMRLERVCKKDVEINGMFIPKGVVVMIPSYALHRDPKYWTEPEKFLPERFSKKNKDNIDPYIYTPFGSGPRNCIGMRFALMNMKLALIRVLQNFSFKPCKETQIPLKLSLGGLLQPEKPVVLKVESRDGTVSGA

With `O=C1N(Cc2ncccc2C(F)(F)F)c2cccc(F)c2C12COc1cc3c(cc12)OCCO3` (stereo not drawn) [Example 5.20, 4′-fluoro-1′-{[3-(trifluoromethyl)pyridin-2-yl]methyl}-2,3-dihydrospiro[furo[2,3-g][1,4]benzodioxine-8,3′-indol]-2′(1′H)-one], on CYP3A4, the inhibition (in general, the drop in the measured response relative to a control, in per cent) at 10 µM is less than 50%. Also, the IC50 (commonly the concentration that inhibits the measured activity by half) in the series on sodium channel lay within 1 to 100 nM.

For the molecule `O=C1N(Cc2ccccn2)c2ccccc2C12COc1cc3c(c(F)c12)OCCO3` (stereo not drawn) [Example 5.25, 9-fluoro-1′-(pyridin-2-ylmethyl)-2,3-dihydro-spiro[furo[2,3-g][1,4]benzodioxine-8,3′-indol]-2′(1′H)-one], at CYP3A4, the inhibition at 10 µM is more than 50%. For the same molecule, the IC50 in the series with sodium channel is 1 to 100 nM.

`O=C1N(Cc2ncccc2C(F)(F)F)c2ccccc2C12COc1cc3c(c(F)c12)OCCO3` (stereo not drawn) [Example 5.26, 9-fluoro-1′-{[3-(trifluoromethyl)pyridin-2-yl]methyl}-2,3-dihydrospiro[furo[2,3-g][1,4]benzodioxine-8,3′-indol]-2′(1′H)-one]: the inhibition at 10 µM on CYP3A4 was less than 50%. Further, the IC50 in the series with sodium channel was 1 to 100 nM.

`O=C1N(Cc2ccc(O)cn2)c2ccccc2C12COc1cc3c(c(F)c12)OCCO3` (stereo not drawn) [Example 5.27, 9-fluoro-1′-[(5-hydroxypyridin-2-yl)methyl]-2,3-dihydrospiro[furo[2,3-g][1,4]benzodioxine-8,3′-indol]-2′(1′H)-one]: on CYP3A4, the inhibition at 10 µM was more than 50%. The IC50 in the series with sodium channel lay within 100 to 1000 nM.

`O=C1N(Cc2ccccn2)c2ccccc2C12COc1cc3c(cc12)OCCC3` (stereo not drawn) [Example 5.28, 1′-(pyridin-2-ylmethyl)-7,8-dihydro-6H-spiro-[furo[2,3-g]chromene-3,3′-indol]-2′(1′H)-one]: on CYP3A4, the inhibition at 10 µM was more than 50%. In addition, in the series with sodium channel, the IC50 is 1 to 100 nM.

On to `O=C1N(Cc2ncccc2C(F)(F)F)c2ccccc2C12COc1cc3c(cc12)OCCC3` (stereo not drawn) [Example 5.29, 1-{[3-(trifluoromethyl)pyridin-2-yl]methyl}-7,8-dihydro-6H-spiro[furo[2,3-g]chromene-3,3′-indol]-2′(1′H)-one], for which the inhibition at 10 µM on CYP3A4 is less than 50%. Further, the IC50 in the series on sodium channel fell in the range of 100 to 1000 nM.

With `O=C1N(Cc2ccccn2)c2ccccc2C12COc1cc3c(cc12)S(=O)(=O)C=C3` (stereo not drawn) [Example 5.31, 1-(pyridin-2-ylmethyl)spiro[indole-3,3′-thieno[2,3-f][1]benzofuran]-2(1′H)-one 5,5′-dioxide], the inhibition at 10 µM on CYP3A4 was less than 50%. Also, the IC50 with sodium channel fell in the range of 1000 to 10000 nM.

With `Cc1cc2c(cc1C)C1(CO2)C(=O)N(CC2CCCCO2)c2ccccc21` (stereo not drawn) [Example 6.2, 5,6-dimethyl-1′-(tetrahydro-2H-pyran-2-ylmethyl)spiro[1-benzofuran-3,3′-indol]-2′(1′H)-one], the inhibition at 10 µM on CYP3A4 was more than 50%. Also, the IC50 with sodium channel was in the range of 100 to 1000 nM.

Take `O=C1N(Cc2cccc([N+](=O)[O-])c2)c2ccccc2C12COc1cc3c(cc12)OCCO3` (stereo not drawn) [Example 7.10]: the inhibition at 10 µM at CYP3A4 is less than 50%. In the series on sodium channel, the IC50 was in the range of 1 to 100 nM.

As to `O=C1N(Cc2cncs2)c2ccccc2C12COc1cc3c(cc12)OCCO3` (stereo not drawn) [Example 7.11], the inhibition at 10 µM at CYP3A4 is more than 50%. Also, in the series on sodium channel, the IC50 lay within 1 to 100 nM.

As to `O=C1N(Cc2ccc(C(F)(F)F)cn2)c2ccccc2C12COc1cc3c(cc12)OCCO3` (stereo not drawn) [Example 7.12], at CYP3A4, the inhibition at 10 µM was more than 50%. For the same molecule, the IC50 in the series on sodium channel was in the range of 1 to 100 nM.

As for `O=C1N(Cc2ncccc2C(F)(F)F)c2ccccc2C12COc1cc3c(cc12)OCCO3` (stereo not drawn) [Example 7.13], the inhibition at 10 µM on CYP3A4 is more than 50%. The IC50 in the series on sodium channel is 1 to 100 nM.

For the molecule `O=C1N(Cc2cc(-c3cccnc3)no2)c2ccccc2C12COc1cc3c(cc12)OCCO3` (stereo not drawn) [Example 7.14], at CYP3A4, the inhibition at 10 µM was more than 50%. Also, the IC50 with sodium channel was in the range of 1 to 100 nM.

For the molecule `CN(C)S(=O)(=O)c1cccc(CN2C(=O)C3(COc4cc5c(cc43)OCCO5)c3ccccc32)c1` (stereo not drawn) [Example 7.16, N,N-dimethyl-3-[(2′-oxo-2,3-dihydrospiro[furo[2,3-g][1,4]benzodioxine-8,3′-indol]-1′-(2′H)-yl)methyl]benzenesulfonamide], the inhibition at 10 µM on CYP3A4 was more than 50%. Further, the IC50 in the series on sodium channel was in the range of 1000 to 10000 nM.

Consider `O=C1N(Cc2cccc(S(=O)(=O)N3CCOCC3)c2)c2ccccc2C12COc1cc3c(cc12)OCCO3` (stereo not drawn) [Example 7.17, 1′-[3-(morpholin-4-ylsulfonyl)benzyl]-2,3-dihydrospiro[furo[2,3-g][1,4]benzodioxine-8,3′-indol]-2′(1′H)-one], for which the inhibition at 10 µM on CYP3A4 is more than 50%. For the same molecule, in the series on sodium channel, the IC50 was 1000 to 10000 nM.

Consider `Cc1nonc1CN1C(=O)C2(COc3cc4c(cc32)OCCO4)c2ccccc21` (stereo not drawn) [Example 7.18, 1′-[(4-methyl-1,2,5-oxadiazol-3-yl)methyl]-2,3-dihydrospiro[furo[2,3-g][1,4]benzodioxine-8,3′-indol]-2′(1′H)-one], for which the inhibition at 10 µM at CYP3A4 was less than 50%. In the series on sodium channel, the IC50 is 1 to 100 nM.

As for `O=C1N(Cc2cccc(F)c2F)c2ccccc2C12COc1cc3c(cc12)OCCO3` (stereo not drawn) [Example 7.19, 1-(2,3-difluorobenzyl)-2,3-dihydrospiro[furo[2,3-g][1,4]benzodioxine-8,3′-indol]-2′(1′H)-one], the inhibition at 10 µM at CYP3A4 was more than 50%. Besides, the IC50 with sodium channel lay within 1 to 100 nM.

As to `O=C1N(Cc2cc(F)cc(F)c2)c2ccccc2C12COc1cc3c(cc12)OCCO3` (stereo not drawn) [Example 7.20, 1′-(3,5-difluorobenzyl)-2,3-dihydrospiro[furo[2,3-g][1,4]benzodioxine-8,3′-indol]-2′(1′H)-one], the inhibition at 10 µM at CYP3A4 was more than 50%. In addition, the IC50 in the series on sodium channel was 1 to 100 nM.

As for `O=C1N(Cc2ccc(F)cc2)c2ccccc2C12COc1cc3c(cc12)OCCO3` (stereo not drawn) [Example 7.21, 1′-(4-fluorobenzyl)-2,3-dihydrospiro[furo[2,3-g][1,4]benzodioxine-8,3′-indol]-2′(1′H)-one], on CYP3A4, the inhibition at 10 µM was more than 50%. Besides, in the series with sodium channel, the IC50 is 1 to 100 nM.

`O=C1N(Cc2ccc(F)cc2Cl)c2ccccc2C12COc1cc3c(cc12)OCCO3` (stereo not drawn) [Example 7.22, 1′-(2-chloro-4-fluorobenzyl)-2,3-dihydrospiro[furo[2,3-g][1,4]benzodioxine-8,3′-indol]-2′(1′H)-one]: the inhibition at 10 µM at CYP3A4 is less than 50%. Besides, the IC50 with sodium channel was 1 to 100 nM.

Consider `Cn1nnc2cc(CN3C(=O)C4(COc5cc6c(cc54)OCCO6)c4ccccc43)ccc21` (stereo not drawn) [Example 7.23, 1′-[(1-methyl-1H-benzotriazol-5-yl)methyl]-2,3-dihydrospiro[furo[2,3-g][1,4]-benzodioxine-8,3′-indol]-2′(1′H)-one], for which, at CYP3A4, the inhibition at 10 µM was less than 50%. In the series on sodium channel, the IC50 lay in the range of 1 to 100 nM.

Consider `O=C1N(Cc2cccc(OC(F)(F)F)c2)c2ccccc2C12COc1cc3c(cc12)OCCO3` (stereo not drawn) [Example 7.24, 1′-[(3-trifluoromethoxy)benzyl]-2,3-dihydrospiro[furo[2,3-g][1,4]benzodioxine-8,3′-indol]-2′(1′H)-one], for which the inhibition at 10 µM on CYP3A4 was more than 50%. Further, the IC50 in the series with sodium channel lay within 1 to 100 nM.

As to `O=C1N(Cc2c(F)cccc2C(F)(F)F)c2ccccc2C12COc1cc3c(cc12)OCCO3` (stereo not drawn) [Example 7.25, 1′-[(2-fluoro-6-trifluoromethyl)benzyl]-2,3-dihydrospiro[furo[2,3-g][1,4]benzodioxine-8,3′-indol]-2′(1′H)-one], the inhibition at 10 µM at CYP3A4 is less than 50%. The IC50 in the series on sodium channel was 1 to 100 nM.

Turning to `O=C1N(Cc2cc(C(F)(F)F)ccc2F)c2ccccc2C12COc1cc3c(cc12)OCCO3` (stereo not drawn) [Example 7.26, 1′-[(2-fluoro-5-trifluoromethyl)benzyl]-2,3-dihydrospiro[furo[2,3-g][1,4]benzodioxine-8,3′-indol]-2′(1′H)-one], on CYP3A4, the inhibition at 10 µM is less than 50%. Moreover, in the series with sodium channel, the IC50 was in the range of 1 to 100 nM.
